Data set [1] can be described thus: Microsomal stability assay, rat liver microsomes. As to conditions: male, Sprague Dawley, pooled rat liver microsomes, pH 7.4; 3 μM compound, 0.5 mg/ml rat liver microsomes, 37° C., 2 mM NADPH; read-out: RLM t½. Format: in vitro ADME. As for the experimental part:
(§1) Assay 3: Microsomal Stability Assay
(§2) Compounds were tested on their stability in human, rat and mouse liver microsomal preparations (HLM, RLM and MLM respectively). At a final concentration of 3 μM, compounds were incubated at 37° C. with 0.5 mg/ml human, rat or mouse liver microsomes in a buffer containing 50 mM phosphate, pH 7.4 and 2 mM NADPH. Pooled human liver microsomes or pooled male rat liver microsomes (Sprague Dawley) were obtained from NatuTec (Frankfurt, Germany). Incubations without NADPH served as negative controls. Reactions were stopped after 0, 15, 30, 45 or 60 min by the addition of acetonitrile and microsomes were pelleted by centrifugation (10 min at 6200× g). Supernatants were analyzed by HPLC regarding the concentration of mother compound. Finally, the half-life of compounds in the regarding microsomal preparation was calculated.
Background: Liver microsomes are a subcellular fraction often used to study metabolism.

The test system of data set [2] is human melanoma A375 cells. In words: Tumor cell proliferation assay (ATP Lite), A375. As to conditions: 4 days incubation. Type of data set: cell-based. The protocol: (§3) Assay 2: Tumor Cell Proliferation Assays (ATP Lite)
(§4) Murine colon C26, human melanoma A375 and human melanoma Mel5 cells were plated in 96 well Corning white plates (1500 cells/well for C26, and 2000 cells/well for A375, and MiaPaCa-2) and cultured overnight at 37° C. in 5% CO2. Inhibitors were serially diluted in 100% DMSO and subsequently added to cells to reach a final concentration of 0.25% DMSO. The cells were incubated for 4 days in the presence of test compounds in cell growth media (DMEM with 10% fetal bovine serum, 2 mM glutamine for C26, and MiaPaCa-2, and RPMI with 10% fetal bovine serum, 2 mM glutamine for A375). Cell proliferation was quantitated using the ATP lite cell proliferation kit (Packard). Columns 2-4 show the concentration of compounds required to induce 50% cell death (IC50 in μM) of […]. With “+” meaning 100 μM<IC50≦10 μM and “++” IC50≦1 μM and “n.d.” means not determined.

In a further data set the target is human MEK1 (Homo sapiens, UniProt Q02750). In words: Inhibition of human MEK1 kinase activity, time resolved fluorescence resonance energy transfer assay. Format: biochemical. As to conditions: 100 nM MEK1, 15 μM ATP, 300 nM ERK2, two hours. The protocol: The activity of the compounds of the present invitation may be determined by the following procedure: Inhibition of human MEK1 kinase activity was monitored with a homogenous, fluorescence based assay. The assay uses time resolved fluorescence resonance energy transfer to probe for phosphorylation of […] by MEK1. The assay is carried out in low volume 96 well microtiterplates. In a total volume of 15 μl, compounds are incubated with 100 nM MEK1, 15 μM ATP, 300 nM ERK2 employing a buffer containing 20 mM TRIS/HCl, 10 mM MgCl2, 100 μM NaVO4, 1 mM DTT, and 0.005% Tween 20 (pH 7.4). After two hours, 5 nM Europium-anti-PY20 (Perkin Elmer) and 50 nM Anti-GST-Allophycocyanin (CisBio) in buffer containing 50 mM EDTA and 0,05% BSA are added and the reaction incubated for one hour in the dark. Time-resolved fluorescence is measured using a LJL-Analyst (Molecular Devices) with an excitation wavelength of 340 nm and an emission wavelength of 665 nm. The final concentration of DMSO is 2%. To assess the inhibitory potential of the compounds, IC50-values were determined.
Sequence of human MEK1 (Q02750 whole entry): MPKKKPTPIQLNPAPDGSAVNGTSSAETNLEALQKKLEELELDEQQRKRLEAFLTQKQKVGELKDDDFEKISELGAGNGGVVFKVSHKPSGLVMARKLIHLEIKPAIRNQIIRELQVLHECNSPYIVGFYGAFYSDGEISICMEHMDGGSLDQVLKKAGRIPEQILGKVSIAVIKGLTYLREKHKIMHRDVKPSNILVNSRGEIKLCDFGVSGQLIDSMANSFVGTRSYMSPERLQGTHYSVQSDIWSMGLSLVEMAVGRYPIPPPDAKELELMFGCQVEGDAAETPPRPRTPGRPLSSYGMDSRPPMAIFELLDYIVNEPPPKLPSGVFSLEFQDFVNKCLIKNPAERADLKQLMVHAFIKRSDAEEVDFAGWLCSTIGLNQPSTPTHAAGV

In the next data set the test system is Murine colon C26 cells. In words: Tumor cell proliferation assay (ATP Lite), C26. Format: cell-based. Particulars: 4 days incubation. The protocol: as §3, §4
Data set [3] is described as follows: Microsomal stability assay, human liver microsomes. Type of data set: in vitro ADME. Particulars: pooled human liver microsomes, pH 7.4; 3 μM compound, 0.5 mg/ml human liver microsomes, 37° C., 2 mM NADPH; read-out: HLM t½. The protocol: as §1, §2
Data set [4] relates to human melanoma Mel5 cells. As to the kind of experiment: Tumor cell proliferation assay (ATP Lite), Mel5. Format: cell-based. As to conditions: 4 days incubation. As for the experimental part:
as §3, §4

For data set [5] the following is noted: in vivo; cited from earlier work.
The test system of the next data set is Tumors. Particulars: patients; cited from earlier work.

Take `Cc1cc(Br)ccc1Nc1cc(=O)n(C)cc1C(=O)NOC[C@@H](O)CO` [Compound 4b, 4-[(4-Bromo-2-methylphenyl)amino]-N-{[(2S)-2,3-dihydroxypropyl]oxy}-1-methyl-6-oxo-1,6-dihydropyridine-3-carboxamide]: the half-life at 3 μM in data set [1] and in data set [3] was > 2 h in each case. In addition, the “A375 cells IC50” value in data set [2] was “+ (100 μM<IC50≦10 μM)”. Also, the IC50 against human MEK1 was ≤ 1 µM. Further, the “C26 cells IC50” value in the data set on Murine colon C26 cells is “+ (100 μM<IC50≦10 μM)”. The “Mel5 cells IC50” value in data set [4] is on record as “+ (100 μM<IC50≦10 μM)”.

Turning to `C=CCNc1nnc(-c2cn(C)c(=O)cc2Nc2ccc(Br)cc2C)o1` [Compound 7a, 5-(5-Allylamino-[1,3,4]oxadiazol-2-yl)-4-(4-bromo-2-methyl-phenylamino)-1-methyl-1H-pyridin-2-one], the half-life at 3 μM in data set [1] and in data set [3] was 0.517 to 2 h throughout. For the same molecule, on human MEK1, the IC50 is ≤ 1 µM.

For the molecule `Cc1cc(Br)ccc1Nc1cc(=O)n(C)cc1C(=O)O` [Compound 3a, 4-(4-Bromo-2-methyl-phenylamino)-1-methyl-6-oxo-1,6-dihydro-pyridine-3-carboxylic acid], the “A375 cells IC50” value in data set [2] was “+ (100 μM<IC50≦10 μM)”. Besides, the IC50 against human MEK1 is ≤ 1 µM. For the same molecule, in the data set with Murine colon C26 cells, the “C26 cells IC50” value is “+ (100 μM<IC50≦10 μM)”. Also, the “Mel5 cells IC50” value in data set [4] is reported as “+ (100 μM<IC50≦10 μM)”.

With `O=C(NOCC1CC1)c1ccc(F)c(F)c1Nc1ccc(I)cc1Cl` [PD-184352], the bioavailability result in data set [5] is listed as “low”. In the data set on Tumors, the “efficacy in clinical phase II trials” value is given as “lacking efficacy”.

On to `Cc1cc(I)ccc1Nc1cc(=O)n(C)cc1C(=O)NOC[C@@H](O)CO` [Compound 4c, 4-[(4-Iodo-2-methylphenyl)amino]-N-{[(2S)-2,3-dihydroxypropyl]oxy}-1-methyl-6-oxo-1,6-dihydropyridine-3-carboxamide], for which the half-life at 3 μM in data set [1] and in data set [3] was > 2 h throughout. Also, in data set [2], the “A375 cells IC50” value is recorded as “+ (100 μM<IC50≦10 μM)”. In addition, the concentration for half-maximal inhibition (IC50) on human MEK1 is ≤ 1 µM. The “C26 cells IC50” value in the data set on Murine colon C26 cells is given as “+ (100 μM<IC50≦10 μM)”.

In the case of `Cc1cc(I)ccc1Nc1cc(=O)n(C)cc1C(=O)O` [Compound 3b, 4-(4-Iodo-2-methyl-phenylamino)-1-methyl-6-oxo-1,6-dihydro-pyridine-3-carboxylic acid], the IC50 against human MEK1 was ≤ 1 µM.

`Cc1cc(Br)ccc1Nc1cc(=O)n(C)cc1C(=O)NO` [Compound 4a, 4-(4-Bromo-2-methyl-phenylamino)-1-methyl-6-oxo-1,6-dihydro-pyridine-3-carboxylic acid hydroxyamide]: in data set [2], the “A375 cells IC50” value is “+ (100 μM<IC50≦10 μM)”. In addition, the IC50 against human MEK1 was ≤ 1 µM. For the same molecule, in the data set on Murine colon C26 cells, the “C26 cells IC50” value was “+ (100 μM<IC50≦10 μM)”. The “Mel5 cells IC50” value in data set [4] was “+ (100 μM<IC50≦10 μM)”.

A word on the IC50: it is the concentration that gives 50% inhibition. The low end stands for higher potency, the high end for lower potency.
